Several values for one entry are separate records, joined by “and”; a condition that tells them apart may be missing. Identical values can stand only once.
System: 922993-354-T-J3-PDC complex spheroid viability
Experiment: Anticancer human tumor 922993-354-T-J3-PDC patient-derived endometrial carcinoma cell line growth inhibition [POLQ]
Settings: for viability, T/C: stronger effect = lower value
Experimental: Multicellular complex tumor spheroid response to Polymerase (POL) inhibitors (novobiocin, ART-558, RP6685) in combination with a variety of drugs and investigational agents in selected tumor cell lines
The POL inhibitors (novobiocin, ART-558, and RP6685) were evaluated both individually and in combination with standard of care and investigational anticancer small molecules within a complex spheroid model of solid tumors. . Complex spheroids include a stromal component modeled by human endothelial cells (HUVEC) and fibroblasts modeled by human mesenchymal stem cells (MSCs). The concentration ranges selected for each drug and investigational agent were based upon clinically achievable concentrations if the clinical Cmax of the agent was known.
Compounds. The drugs and investigational agents: novobiocin (NSC847541), ART-558 (NSC835418), RP-6685 (NSC848927), peposertib (NSC802822), ceralasertib (NSC780249), elimusertib (NSC800525), camonsertib (NSC841442), AZD-1390 (NSC803789), olaparib (NSC753686), talazoparib (NSC767125), rucaparib (NSC756644), sotorasib (NSC818433), MRTX-1133 (NSC836407), SN-38 (NSC673596), topotecan (NSC609699), epotoside (NSC141540), doxorubicin (NSC123127), gemcitabine (NSC613327), 5-fluorouracil (NSC19893), paclitaxel (NSC125973), vemurafenib (NSC761431), MSA-2 (NSC828583), SN-011 (NSC837082), adavosertib (NSC754352), prexasertib (NSC758257), carboplatin (NSC241240) and oxaliplatin (NSC266046), were obtained from the National Cancer Institute (NCI) Developmental Therapeutics Program Chemical Repository (21). The FDA-approved anticancer drug set is available from the Developmental Therapeutics Program at https://dtp.cancer.gov/organization/dscb/obtaining/. […] The stock solutions were prepared in dimethyl sulfoxide (DMSO, Sigma-Aldrich, St. Louis, MO, cat. D2650), except for the platinum compounds which were prepared in saline (Quality Biological, Gaithersburg, MD, cat. 114-055-101), at 800-fold the tested concentration and stored at -70 degrees C prior to their use. All drugs and investigational agents were tested over a range starting from a high concentration at or near the clinical Cmax and decreasing in half-log increments. If the clinical Cmax for an agent had not been determined, the highest concentration tested was 10 microM, except for SN-38, which was tested at a high concentration of 1 microM.
Cell Culture. All cells were maintained in an incubator at 37 degrees C and 5% CO2 with 95% humidity. The PDC lines were cultured according to standard operating procedures established by the NCI PDMR (https://pdmr.cancer.gov). Table 3 of the manuscript, lists the cell lines along with the number of the three cell types plated to form the mct-spheroids and media for tumor cell growth. After thawing, all PDC lines, except 997537-175-T-J1-PDC and 415267-285-R-J2-PDC, were cultured in Matrigel-coated flasks prepared with a working solution of 1X Ham's F-12 nutrient mix, without supplementation (Thermo Fisher Scientific, cat. 11765054), 100 U/mL penicillin-streptomycin (Thermo Fisher Scientific, cat. 15140122), and 2.5% Matrigel (Corning Inc., Corning, NY, cat. 354248) for the first three passages. The two PDC lines 997537-175-T-J1-PDC and 415267-285-R-J2-PDC were cultured on uncoated flasks. The 857933-349-R-J2-PDC line was cultured in 6C/Colon 1B media containing advanced DMEM/F-12 (Thermo Fisher Scientific, cat. 12634028), 10 mM HEPES (Thermo Fisher Scientific, cat. 15630080), 1X GlutaMAX supplement (Thermo Fisher Scientific, cat. 35050061), 0.1 mg/mL primocin (InvivoGen, San Diego, CA, cat. ant-pm-2), 10% defined fetal bovine serum, heat inactivated (HyClone Laboratories Inc., Logan, UT, cat. SH30070.03HI), 50% L-WRN conditioned media (ATCC, cat. CRL-3276), 1.25 mM N-Acetyl-L-cysteine (Sigma-Aldrich, cat. A9165), 10 mM nicotinamide (Sigma-Aldrich, cat. N0636), 1X B-27 supplement (Thermo Fisher Scientific, cat. 17504044), 1X N-2 supplement (Thermo Fisher Scientific, cat. […]

[1] = curve of first compound, second compound 0.0316 µM
[2] = curve of first compound, second compound 0.1 µM
[3] = curve of first compound, second compound 0.316 µM
[4] = curve of first compound, second compound 1 µM
[5] = curve of first compound, second compound 3.16 µM
[6] = curve of first compound, second compound 10 µM
[7] = second compound 0.0316 µM, first compound 0.0316 µM
[8] = second compound 0.0316 µM, first compound 0.1 µM
[9] = second compound 0.0316 µM, first compound 0.316 µM
[10] = second compound 0.0316 µM, first compound 1 µM
[11] = second compound 0.0316 µM, first compound 3.16 µM
[12] = second compound 0.0316 µM, first compound 10 µM
[13] = second compound 0.1 µM, first compound 0.0316 µM
[14] = second compound 0.1 µM, first compound 0.1 µM
[15] = second compound 0.1 µM, first compound 0.316 µM
[16] = second compound 0.1 µM, first compound 1 µM
[17] = second compound 0.1 µM, first compound 3.16 µM
[18] = second compound 0.1 µM, first compound 10 µM
[19] = second compound 0.316 µM, first compound 0.0316 µM
[20] = second compound 0.316 µM, first compound 0.1 µM
[21] = second compound 0.316 µM, first compound 0.316 µM
[22] = second compound 0.316 µM, first compound 1 µM
[23] = second compound 0.316 µM, first compound 3.16 µM
[24] = second compound 0.316 µM, first compound 10 µM
[25] = second compound 1 µM, first compound 0.0316 µM
[26] = second compound 1 µM, first compound 0.1 µM
[27] = second compound 1 µM, first compound 0.316 µM
[28] = second compound 1 µM, first compound 1 µM
[29] = second compound 1 µM, first compound 3.16 µM
[30] = second compound 1 µM, first compound 10 µM
[31] = second compound 3.16 µM, first compound 0.0316 µM
[32] = second compound 3.16 µM, first compound 0.1 µM
[33] = second compound 3.16 µM, first compound 0.316 µM
[34] = second compound 3.16 µM, first compound 1 µM
[35] = second compound 3.16 µM, first compound 3.16 µM
[36] = second compound 3.16 µM, first compound 10 µM
[37] = second compound 10 µM, first compound 0.0316 µM
[38] = second compound 10 µM, first compound 0.1 µM
[39] = second compound 10 µM, first compound 0.316 µM
[40] = second compound 10 µM, first compound 1 µM
[41] = second compound 10 µM, first compound 3.16 µM
[42] = second compound 10 µM, first compound 10 µM
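Also: spheroids exposed to the agents for one week.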
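For viability, T/C in this document: 100% = DMSO vehicle control wells.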

## O=C(c1cc(Cc2n[nH]c(=O)c3ccccc23)ccc1F)N1CCN(C(=O)C2CC2)CC1 + Nc1ccc(C#CCN(C(=O)Cc2ncc(C(F)(F)F)cc2C(F)(F)F)c2ccc(F)cc2)nn1
[1]
  IC50: > 10 µM
[2]
  IC50: > 10 µM
[3]
  IC50: > 10 µM
[4]
  IC50: > 10 µM
[5]
  IC50: > 10 µM
[6]
  IC50: > 10 µM
[7]
  viability, T/C: 107%
[8]
  viability, T/C: 97.6%
[9]
  viability, T/C: 99.4%
[10]
  viability, T/C: 101%
[11]
  viability, T/C: 102%
[12]
  viability, T/C: 96.7%
[13]
  viability, T/C: 104%
[14]
  viability, T/C: 103%
[15]
  viability, T/C: 100%
[16]
  viability, T/C: 98%
[17]
  viability, T/C: 101%
[18]
  viability, T/C: 95%
[19]
  viability, T/C: 104%
[20]
  viability, T/C: 99.5%
[21]
  viability, T/C: 101%
[22]
  viability, T/C: 101%
[23]
  viability, T/C: 102%
[24]
  viability, T/C: 97.1%
[25]
  viability, T/C: 99%
[26]
  viability, T/C: 105%
[27]
  viability, T/C: 101%
[28]
  viability, T/C: 96.2%
[29]
  viability, T/C: 100%
[30]
  viability, T/C: 100%
[31]
  viability, T/C: 101%
[32]
  viability, T/C: 100%
[33]
  viability, T/C: 99.2%
[34]
  viability, T/C: 98.6%
[35]
  viability, T/C: 97.5%
[36]
  viability, T/C: 101%
[37]
  viability, T/C: 95.6%
[38]
  viability, T/C: 96.9%
[39]
  viability, T/C: 88.8%
[40]
  viability, T/C: 91.9%
[41]
  viability, T/C: 94.2%
[42]
  viability, T/C: 90%

## C=CCn1c(=O)c2cnc(Nc3ccc(N4CCN(C)CC4)cc3)nc2n1-c1cccc(C(C)(C)O)n1
Compound 0.00316 µM
  viability, T/C: 99% and 101% and 104%
Compound 0.01 µM
  viability, T/C: 102% and 97.2% and 98.6%
Compound 0.0316 µM
  viability, T/C: 88.2% and 102% and 105%
Compound 0.1 µM
  viability, T/C: 98.6% and 105% and 101%
Compound 0.316 µM
  viability, T/C: 106% and 104% and 103%
Compound 1 µM
  viability, T/C: 86.5% and 104% and 96%
Curve of compound
  IC50: > 1 µM

## CC1COCCN1c1cc(-c2ccnn2C)c2ccnc(-c3ccn[nH]3)c2n1 (stereo not drawn)
Compound 0.0316 µM
  viability, T/C: 102% and 89.6% and 107%
Compound 0.1 µM
  viability, T/C: 66.9% and 60.1% and 93.3%
Compound 0.316 µM
  viability, T/C: 23.1% and 29.1% and 69.8%
Compound 1 µM
  viability, T/C: 11.8% and 12.8% and 36.8%
Compound 3.16 µM
  viability, T/C: 9.13% and 7.87% and 19.7%
Compound 10 µM
  viability, T/C: 10.8% and 9.87% and 13.7%
Curve of compound
  IC50: 0.156 µM and 0.146 µM and 0.63 µM

## C=CC(=O)N1CCN(c2nc(=O)n(-c3c(C)ccnc3C(C)C)c3nc(-c4c(O)cccc4F)c(F)cc23)C(C)C1 (stereo not drawn) + Cc1cccc(N(C)C(=O)C2C(O)CCN2c2nc(C)cc(C(F)(F)F)c2C#N)c1
[1]
  IC50: > 10 µM
[2]
  IC50: > 10 µM
[3]
  IC50: > 10 µM
[4]
  IC50: > 10 µM
[5]
  IC50: > 10 µM
[6]
  IC50: > 10 µM
[7]
  viability, T/C: 100%
[8]
  viability, T/C: 105%
[9]
  viability, T/C: 106%
[10]
  viability, T/C: 113%
[11]
  viability, T/C: 102%
[12]
  viability, T/C: 93.2%
[13]
  viability, T/C: 104%
[14]
  viability, T/C: 103%
[15]
  viability, T/C: 103%
[16]
  viability, T/C: 108%
[17]
  viability, T/C: 97.8%
[18]
  viability, T/C: 102%
[19]
  viability, T/C: 105%
[20]
  viability, T/C: 99.2%
[21]
  viability, T/C: 103%
[22]
  viability, T/C: 104%
[23]
  viability, T/C: 92.2%
[24]
  viability, T/C: 96.8%
[25]
  viability, T/C: 103%
[26]
  viability, T/C: 95.2%
[27]
  viability, T/C: 100%
[28]
  viability, T/C: 102%
[29]
  viability, T/C: 101%
[30]
  viability, T/C: 105%
[31]
  viability, T/C: 108%
[32]
  viability, T/C: 103%
[33]
  viability, T/C: 102%
[34]
  viability, T/C: 98.9%
[35]
  viability, T/C: 102%
[36]
  viability, T/C: 106%
[37]
  viability, T/C: 93.7%
[38]
  viability, T/C: 101%
[39]
  viability, T/C: 97.9%
[40]
  viability, T/C: 99.8%
[41]
  viability, T/C: 111%
[42]
  viability, T/C: 112%

— PubChem BioAssay AID1963830 (Molecular Pharmacology Branch, DTP, NCI, 2024)
